We go through one compound from patent US5849737A, “Compositions and methods for treating pain” (priority 1995, dated 1998).

Series [1] has as its system tactile allodynia (paw withdrawal thresholds). Briefly: Mechanical allodynia after single i.p. dose in DA rats (left L5/L6 spinal nerve ligation). Format: in vivo.
For series [2] the test system is unchanged. Briefly: Mechanical allodynia after single i.p. dose in SD rats (left L5/L6 spinal nerve ligation). Format: in vivo.
The conditions of series [3]: cited from earlier work.
The subject of another series is P450 PA(P45OIA2) enzyme. Conditions: lidocaine metabolite formation; cited from earlier work.
For series [4] the following is noted: DA rats; some species of rats; cited from earlier work.
Series [5] has as its system tactile allodynia (paw withdrawal thresholds). The series can be described thus: Tactile allodynia (50% paw withdrawal threshold, von Frey) after intrathecal drug, L5/L6 spinal nerve ligated rats. Format: in vivo, Male Harlan Sprague-Dawley rats. How it is done: Male Harlan Sprague-Dawley rats were used (100-200 g). Rats were housed 2-3 to a cage with corn cob bedding and Purina rat chow and water ad libitum, in a standard facility with a 12 h/ 12 h day/night cycle. After surgical procedures involving chronic indwelling catheter insertion, animals were housed singly to prevent catheter damage.
Rats were allowed to recover 5-7 days before further testing or surgeries.
The catheters were 9 cm in intrathecal length and terminated near the lumbar enlargement. The rostral 3 cm of catheter was tunneled under the skin to externalize between the ears. Rats with neurologic deficits were discarded.
Monoethylglycinexylidide (MEGX) was dissolved in physiologic saline; 3-hydroxylidocaine (3-OH L) was dissolved in DMSO for intravenous administration.
Intravenous drugs were delivered to awake, unrestrained rats by slow infusion using a syringe pump (Harvard apparatus 22). Intrathecal drugs were delivered to awake, briefly restrained rats in a volume of 10 μl, followed by 10 μl of vehicle flush, using a calibrated tubing extension with a 30-gauge adapter fitting the implanted intrathecal catheter, attached to a geared Hamilton 100 μl glass syringe. IT drug delivery was monitored by observing the advancement of a small air bubble down the tubing.
Rats were placed in a plastic cage with an open wire mesh bottom and allowed to accommodate for approximately fifteen minutes. […] In brief, von Frey hairs were sequentially applied using an up-and-down paradigm to the left mid-plantar hindpaw with sufficient force to cause slight filament buckling. Positive responses were noted if the paw was sharply withdrawn. […] Otherwise, PWT were calculated by noting the stimulus level at which the first change in behavior occurred, collecting four additional responses to the continued up-and-down oscillation of stimulus presentation around the response threshold, and interpolating the 50% response threshold. […] The following equation was used to compute %MPE: [formula]
Plasma drug levels and PWT were correlated using linear regression. Serially measured PWT and %MPE were compared using repeated measures ANOVA.

Series [6] has the same test system. Briefly: Tactile allodynia (50% paw withdrawal threshold, von Frey) after intravenous drug, L5/L6 spinal nerve ligated rats. The series is classed as in vivo, Male Harlan Sprague-Dawley rats. From the text:
For intravascular access, external jugular catheters were fashioned from PE-50 tubing and inserted into an external jugular vein under halothane/oxygen anesthesia. Arterial catheters were also fashioned from PE-50 with a small bouton 1 cm from the intravascular end for suture securing; they were inserted into a carotid artery, taking care to spare the surrounding nerves. All catheters were flushed with heparinized saline (10 U/ml) and tunneled subcutaneously to emerge at the posterior base of the neck, and capped when not in use. […] Rats were placed in a plastic cage with an open wire mesh bottom and allowed to accommodate for approximately fifteen minutes. A series of 8 von Frey filaments with logarithmically incremental stiffness (0.41, 0.70, 1.20, 2.00, 3.63, 5.50, 8.50, and 15.10 g) (Stoelting, Wood Dale, Ill.) was used to determine the 50% threshold for paw withdrawal to light mechanical stimuli (PWT). In brief, von Frey hairs were sequentially applied using an up-and-down paradigm to the left mid-plantar hindpaw with sufficient force to cause slight filament buckling. Positive responses were noted if the paw was sharply withdrawn. […] Otherwise, PWT were calculated by noting the stimulus level at which the first change in behavior occurred, collecting four additional responses to the continued up-and-down oscillation of stimulus presentation around the response threshold, and interpolating the 50% response threshold. […] The following equation was used to compute %MPE: [formula] Plasma drug levels and PWT were correlated using linear regression. Serially measured PWT and %MPE were compared using repeated measures ANOVA.

A further series is described as follows: Solubility. Conditions: IT vehicle 10% DMSO, 25% propylene glycol, 25% ethanol, 40% saline; injected volume 10 μl. Format: physicochemical. From the text: The free base forms of the compounds of general formula I are not water-soluble; for example, it was necessary to dissolve the free base of 3-hydroxylidocaine in a vehicle containing an empirically determined mixture of ethanol, dimethyl sulfoxide, propylene glycol and saline for application to the rat spinal cord. The physiologically-acceptable salt forms of the compounds of general formula I employed in accordance with the present invention, in contrast, are generally water-soluble to at least some degree, and the solubility properties thereof can be in many cases improved by conjugation. Unlike the free base forms of the compounds of general formula I, the salt forms may be administered by a variety of known routes [e.g., oral intravenous, intrathecal, local (e.g., intraneuromal), epidural, transdermal, etc.] as would be readily appreciated by those skilled in the art. As is conventional practice in the art, the active agent of general formula I is typically administered in a pharmaceutically acceptable carrier or excipient (e.g., saline).

The structures appear in SMILES notation. “Also recorded” adds a separate entry of the source. Read-outs that look alike come from different tables or passages of the source.

In the case of `CCN(CC)CC(=O)Nc1c(C)ccc(O)c1C` [3-OH L, 3-hydroxylidocaine], the “duration of significant effect on allodynia, DA rats” value in series [1] (3-OHL 15 mg/kg i.p., N=5, P<0.002, followed for 7 days) is given as “up to 7 days”. Besides, the “effect on tactile allodynia, DA rats” value in series [1] (single i.p. dose, lidocaine 60 mg/kg, 3-OHL 15 mg/kg (P<0.002)) is on record as “persistently reduced allodynia in both strains; also recorded: persistent suppression of allodynia”. In addition, in series [2] (3-OHL 15 mg/kg i.p., N=6, P<0.05, followed for 7 days), the “duration of significant effect on allodynia, SD rats” value is on record as “up to 7 days”. Moreover, the “magnitude and duration of effect of 15 mg/kg 3-OHL relative to 60 mg/kg lidocaine in SD rats” value in series [2] (i.p. (FIG. 7)) is listed as “apparently shorter duration”. The “effect on tactile allodynia, SD rats” value in series [2] (single i.p. dose, lidocaine 60 mg/kg, 3-OHL 15 mg/kg (P<0.05)) is reported as “persistently reduced allodynia in both strains; also recorded: persistent suppression of allodynia”. Also, the “production of 3-OH L in humans” value in series [3] is given as “humans do produce some 3-OH L”; in series [3] (listed as 3-OHL), “very small quantities”. Also, the “enzyme producing the metabolite 3-OH L” value in the series with P450 PA(P45OIA2) enzyme is “produced by the P450 PA(P45OIA2) enzyme”. Besides, the “3-hydroxylation / production of 3-OH L in rats” value in series [4] is reported as “Some species of rats predominantly produce 3-OH L”. Further, the “persistence of allodynia suppression after single IT dose” value in series [5] (3-OH L 58 μg IT single dose, follow-up period) is 5 days. In addition, the “thresholds at 5 days post treatment” value in series [5] (3-OH L 58 μg IT, N=6, baseline 2.7±0.2, vehicle 2.2±0.5, P=0.0008, unit not given) is recorded as 9.3±2.5. Further, in series [5] (3-OH L 58 μg IT, baseline 2.3±0.39 g, P<0.0001), the “PWT at 60 minutes after IT treatment” value was 10.66 ± 2.3 g. Moreover, in series [5] (IT), the “duration of effect on allodynia, IT route” value is “long lasting effect by the IT route”. Moreover, the “effect on allodynia thresholds after IT delivery” value in series [5] (IT, lidocaine 500 μg, MEGX 500 μg, 3-OH L 58 μg) is on record as “suppressed allodynia after IT administration; also recorded: significantly effective at suppressing allodynia”. In series [6] (3-OH L IV in DMSO, 20 mg/kg total (FIG. 2), N=4, baseline 1.57±0.5 g, P=<0.0001), this compound displayed a PWT after infusion of 15 ± 0 g. Besides, in series [6] (IV), the “duration of effect on allodynia, IV route” value is reported as “not by the IV route”. The “potency and onset of allodynia suppression relative to lidocaine” value in series [6] (IV 3-OH L compared with parent compound) is listed as “more potent with regard to this effect; also recorded: far more rapid onset”. In series [6] (IV, N=4), the “allodynia suppression by IV delivery” value was “highly active when administered intravenously; also recorded: both potent and effective at suppressing allodynia; also recorded: complete normalization”. The “highest dose soluble in the vehicle” value in “Solubility” was 58 µg.
